Marks after values point to notes of the source that are not given here.
Tests used:
[1] = Vapor pressures of crystalline and liquid phases, static method with capacitance diaphragm gauge; format: physicochemical
Excerpt: A previously described and tested static apparatus was used to measure the vapor pressures of the condensed phases (both crystalline and liquid) of the five compounds studied. This installation employs MKS capacitance diaphragm absolute gauges, operating at self-regulated constant temperatures. Our lab is equipped with three pressure gauges. Gauge I, a Baratron 631A01TBEH (MKS instruments, Andover, MA, USA) (Tgauge = 423 K), measures pressures in the range of 0.5 to 1.3 × 10^2 Pa and operates within a temperature range of 253 to 413 K. Gauge II, the instrument used in this study, is a Baratron 631A11TBFP (MKS instruments, Andover, MA, USA) (Tgauge = 473 K), capable of measuring pressures from 0.5 to 1.3 × 10^3 Pa within a temperature range of 253 to 433 K and gauge III, a Baratron 631D02T8FP (MKS instruments, Andover, MA, USA) (Tgauge = 473 K), designed to measure pressures between 0.5 Pa and 2.6 × 10^2 Pa, also within a temperature range of 253 to 433 K. The temperatures of the samples were measured using a Pt100 platinum resistance thermometer, calibrated by comparison with a standard platinum resistance thermometer (SPRT: Tinsley Precision Instruments Ltd, London, England). To prevent vapor condensation, the tubing connecting the cell containing the condensed sample to the pressure gauge is maintained at a temperature higher than that of the sample but lower than that of the gauge. The uncertainty in temperature measurements is estimated to be u(T/K) = ±0.01, and the expanded uncertainties (0.95 confidence level, k = 2) in pressure measurements are given by the expression U(p/Pa) = 0.1 + 0.0050 (p/Pa) for the gauge used. Samples were thoroughly degassed before starting the vapor pressure measurements, ensuring consistent readings at specific temperatures and eliminating any residual volatile substances, including water.

[2] = pH of the saturated aqueous solutions; format: physicochemical; details: saturated aqueous solution of the solubility experiment
Procedure: The concentration was measured by absorbances at 260 nm for 4-chlorobenzaldehyde, 263 nm for 4-bromobenzaldehyde and 2,4-dichlorobenzaldehyde, 297 nm for 2,6-dichlorobenzaldehyde, and 306 nm for 2,3-dichlorobenzaldehyde, using a Cary-60 UV–vis (Agilent) spectrophotometer. X-ray diffraction (XRD) and differential scanning calorimetry of residual solids were used to identify the eventual phase transformations. The purified samples of each compound studied were used for all experimental determinations, including the solubility measurements. After reaching the equilibrium, the residual solid was dried and analyzed using both DSC and XRD. The melting properties obtained from DSC were compared with those of the original purified sample, following the same procedure for the XRD analysis. […] As an example, the supporting information includes two thermograms and two XRD patterns for 2,4-dichlorobenzaldehyde (Figures S1 and S2). […] Equation (4) was derived from Equation (5), which is widely applicable to the solubility of solids.(4) ΔhydrGm°/kJ·mol^−1=9.17−5.71·log10(Scr/mol·m^−3)−ΔcrgGm°/kJ·mol^−1 (5) S=p^°/RTexpΔcrgGm°+ΔhydrGm°/−RT
An excess amount of each compound was added to a known volume of water in triplicate. […] After stirring, the solid phase was allowed to settle for 2 h. The pH of the saturated solutions was measured using a Mettler Toledo (Greifensee, Switzerland) FiveEasy F20 pH Meter calibrated with standard aqueous solutions (pH 7.00 and 4.01 or 10.1). Those solutions were then filtered through a 0.22 μm syringe hydrophilic filter (13 mm, PTFE, Labfil, Zhejiang, China) and diluted to the required concentration. The concentration of the compounds, expressed in molarity, was measured by absorbances using a Cary-60 UV–vis spectrophotometer (Agilent Technologies, Santa Clara, CA, USA) at 298.15 K (single cell Peltier accessory, ±0.15 K). The results reported in Table 6 are averaged from at least three replicates. Calibration was performed using solutions of known concentrations of each substance in water. These solutions were prepared by adding a precise mass of the substance and a specific volume of the solvent to a flask, then mixing until the substance was fully dissolved. The absorbance of these solutions was measured, and calibration curves were created.

O=Cc1ccc(Cl)cc1Cl [2,4-Dichlorobenzaldehyde]
vapor pressure p ([1]; crystalline phase, T = 285.78 K): 0.64 Pa
vapor pressure p ([1]; crystalline phase, T = 287.68 K): 0.80 Pa
vapor pressure p ([1]; crystalline phase, T = 289.73 K): 1.02 Pa
vapor pressure p ([1]; crystalline phase, T = 291.36 K): 1.23 Pa
vapor pressure p ([1]; crystalline phase, T = 293.15 K): 1.50 Pa
vapor pressure p ([1]; crystalline phase, T = 294.83 K): 1.81 Pa
vapor pressure p ([1]; crystalline phase, T = 296.85 K): 2.29 Pa
vapor pressure p ([1]; crystalline phase, T = 298.81 K): 2.85 Pa
vapor pressure p ([1]; crystalline phase, T = 301.19 K): 3.67 Pa
vapor pressure p ([1]; crystalline phase, T = 303.16 K): 4.55 Pa
vapor pressure p ([1]; crystalline phase, T = 305.23 K): 5.65 Pa
vapor pressure p ([1]; crystalline phase, T = 307.12 K): 6.86 Pa
vapor pressure p ([1]; crystalline phase, T = 308.88 K): 8.29 Pa
vapor pressure p ([1]; crystalline phase, T = 310.95 K): 10.12 Pa
vapor pressure p ([1]; crystalline phase, T = 313.23 K): 12.78 Pa
vapor pressure p ([1]; crystalline phase, T = 315.25 K): 15.58 Pa
vapor pressure p ([1]; crystalline phase, T = 317.80 K): 20.05 Pa
vapor pressure p ([1]; crystalline phase, T = 320.56 K): 26.18 Pa
vapor pressure p ([1]; crystalline phase, T = 322.93 K): 32.84 Pa
vapor pressure p ([1]; crystalline phase, T = 325.24 K): 40.77 Pa
vapor pressure p ([1]; crystalline phase, T = 327.66 K): 50.25 Pa
vapor pressure p ([1]; crystalline phase, T = 329.75 K): 60.90 Pa
vapor pressure p ([1]; crystalline phase, T = 331.73 K): 72.78 Pa
vapor pressure p ([1]; crystalline phase, T = 333.66 K): 85.89 Pa
vapor pressure p ([1]; crystalline phase, T = 335.72 K): 102.0 Pa
vapor pressure p ([1]; crystalline phase, T = 337.64 K): 119.1 Pa
vapor pressure p ([1]; crystalline phase, T = 339.73 K): 141.9 Pa
vapor pressure p ([1]; crystalline phase, T = 341.66 K): 166.2 Pa
vapor pressure p ([1]; liquid phase, T = 344.36 K): 207.6 Pa
vapor pressure p ([1]; liquid phase, T = 346.33 K): 233.6 Pa
vapor pressure p ([1]; liquid phase, T = 348.33 K): 261.6 Pa
vapor pressure p ([1]; liquid phase, T = 349.66 K): 282.0 Pa
vapor pressure p ([1]; liquid phase, T = 351.41 K): 310.8 Pa
vapor pressure p ([1]; liquid phase, T = 353.17 K): 342.8 Pa
vapor pressure p ([1]; liquid phase, T = 355.39 K): 390.3 Pa
vapor pressure p ([1]; liquid phase, T = 357.59 K): 437.4 Pa
vapor pressure p ([1]; liquid phase, T = 359.46 K): 479.4 Pa
vapor pressure p ([1]; liquid phase, T = 361.34 K): 533.0 Pa
vapor pressure p ([1]; liquid phase, T = 363.54 K): 603.2 Pa
vapor pressure p ([1]; liquid phase, T = 365.63 K): 668.2 Pa
vapor pressure p ([1]; liquid phase, T = 367.44 K): 733.6 Pa
vapor pressure p ([1]; liquid phase, T = 369.34 K): 810.6 Pa
vapor pressure p ([1]; liquid phase, T = 371.29 K): 885.4 Pa
vapor pressure p ([1]; liquid phase, T = 373.62 K): 998.4 Pa
vapor pressure p ([1]; liquid phase, T = 375.74 K): 1100 Pa
vapor pressure p ([1]; supercooled liquid, T = 324.34 K): 57.72 ^d Pa
vapor pressure p ([1]; supercooled liquid, T = 326.40 K): 66.54 ^d Pa
vapor pressure p ([1]; supercooled liquid, T = 328.22 K): 75.25 ^d Pa
vapor pressure p ([1]; supercooled liquid, T = 330.22 K): 85.67 ^d Pa
vapor pressure p ([1]; supercooled liquid, T = 332.21 K): 97.72 ^d Pa
vapor pressure p ([1]; supercooled liquid, T = 334.17 K): 110.6 ^d Pa
vapor pressure p ([1]; supercooled liquid, T = 336.16 K): 125.6 ^d Pa
vapor pressure p ([1]; supercooled liquid, T = 338.15 K): 141.4 ^d Pa
vapor pressure p ([1]; supercooled liquid, T = 340.44 K): 163.3 ^d Pa
vapor pressure p ([1]; supercooled liquid, T = 342.29 K): 184.1 Pa
pH of the saturated solution [2]: 6.57

Reference: article PMC11990670, “Exploring the Volatility, Phase Transitions, and Solubility Properties of Five Halogenated Benzaldehydes” (Molecules, 2025)
